Entries after “also recorded” stand apart in the source; their conditions may differ.
Key:
[1] = tested on: Bcl-xL; assay: Bcl-xL protein in ARPE-19 cells under oxidative stress; type: cell-based, human; conditions: ARPE-19 cells under OS
Experimental: (§1) FIG. 8. (A) Bcl-xL-upregulation by elovanoids ELV1 and ELV2 in ARPE-19 cells under stress. Bcl-xL is the antiapoptotic Bcl2 family protein. Like proapoptotic proteins Bid and Bim, the effect of elovaniod precursors on the antiapoptotic protein Bcl-xL was tested in this figure in RPE cells under OS. […] (B) Effect of NPD1, ELV1 and ELV2 on Bax expression in LOX-D cells under stress. Proapoptotic Bax was tested in this figure. […] C) VLC-PUFA and elovanoids ELV1 and ELV2 mediated effect on Bax upregulation in ARPE-19 cells under stress. In this experiment, elovanoid precursors along with VLC-PUFA were tested on the downregulation of the Bax protein in RPE cells under stress.
as §1, with “8—(A)” for “8. (A)”

[2] = tested on: Bim; assay: Bim protein in ARPE-19 cells under oxidative stress; type: cell-based, human; conditions: ARPE-19 cells under stress
Description: (§2) FIG. 7. (A) VLC-PUFA and ELV1 and ELV2 compounds mediated downregulation of Bim in ARPE-19 cells under stress. Bim, another class of Bcl2 family, has been tested like Bid in this figure to confirm our previous results. VLC-PUFA and elovanoids protected against the upregulation of Bim by OS, similar to Bid, in RPE cells under stress. (B) VLC-PUFA and elovanoids mediated effect on Bim downregulation in ARPE-19 cells under stress.
as §2, with “7—A)” for “7. (A)”, “[…]” for “downregulation”, “protected” for “protected against”

[3] = tested on: Bid; assay: Bid protein by western blot in ARPE-19 cells under oxidative stress; type: cell-based, human
Description: FIG. 6. (A) VLC-PUFA and elovanoids ELV1 and ELV2 mediated effect on Bid upregulation in ARPE-19 cells under stress. […] (B) VLC-PUFA and ELV1 and ELV2 compounds mediated upregulation of Bid in ARPE-19 cells under stress.
FIG. 6—(A) VLC-PUFA and elovanoids ELV1 and ELV2 mediated effect on Bid upregulation in ARPE-19 cells under stress. […] (B) VLC-PUFA and ELV1 and ELV2 compounds mediated upregulation of Bid in ARPE-19 cells under stress.

[4] = tested on: SIRT1; assay: SIRT1 abundance in ARPE-19 cells under oxidative stress; type: cell-based; conditions: ARPE-19 / human RPE cells confronted with OS
Description: FIG. 10. (A) Effect of NPD1 and VLC-PUFA C32:6 and C34:6 in mediating upregulation of SIRT1 in ARPE-19 cells. (B) Quantification of SIRT1 upregulation by NPD1, C32:6 and C34:6. SIRT1 (Sirtuin1) belongs to a family of highly conserved proteins linked to caloric restriction beneficial outcomes and aging by regulating energy metabolism, genomic stability and stress resistance. SIRT1 is a potential therapeutic target in several diseases including cancer, diabetes, inflammatory disorders, and neurodegenerative diseases or disorders. Elovanoids induce cell survival involving the upregulation of the Bcl2 class of survival proteins and the downregulation of pro-apoptotic Bad and Bax under oxidative stress (OS) in RPE cells. […] As a consequence, remarkable cell survival takes place. This target of elovanoids might be relevant to counteract consequences of several diseases associated with SIRT1.
FIG. 10—(A) Effect of NPD1 and VLC-PUFA C32:6 and C34:6 in mediating upregulation of SIRT1 in ARPE-19 cells. (B) Quantification of SIRT1 upregulation by NPD1, C32:6 and C34:6. SIRT1 (Sirtuin1) belongs to a family of highly conserved proteins linked to caloric restriction beneficial outcomes and aging by regulating energy metabolism, genomic stability and stress resistance. […]

[5] = tested on: human retinal pigment epithelial cells (ARPE-19, HRPE); assay: Formation of hydroxylated derivatives from VLC-PUFA in human RPE cells in culture (LC-MS/MS); type: in vitro ADME; conditions: 34:6n3 100 nM, 12-16 hours, culture media
Experimental: FIG. 2. Evidence of cell-derived hydroxylated derivatives (29-hydroxy-34:6 and 22,29-dihydroxy-34:6) derived from the omega-3 VLC-PUFA 34:6n3 (C34:6) from human retinal pigment epithelial cells in culture. Human retinal pigment epithelial cells (spontaneously transformed ARPE-19 cells) or primary human retinal pigment epithelial cells (HRPE) were incubated with 34:6n3 (100 nM) during 12-16 hours and then the culture media collected lipid extracted and run in LC-MS/MS.
Evidence for the formation of hydroxylated VLC-PUFA in cells as postulated in FIG. 1, and as documented in FIG. 2. […] The preferred structures of 2 are 2a and 2b, while the preferred structures of 3 are 3a and 3b. […] The cell-derived hydroxylated derivatives 2 and 3 were obtained from human retinal pigment epithelial cells in culture. Human retinal pigment epithelial cells (spontaneously transformed ARPE-19 cells) or primary human retinal pigment epithelial cells (HRPE) were incubated with 34:6n3 (100 nM) during 12-16 hours and then the culture media collected lipid extracted and run in LC-MS/MS. […] The stereochemistry of the mono- and di-hydroxy compounds were not possible to determine, but they were presumed to be the same as those derived from DHA.

Row | SMILES | effect on antiapoptotic Bcl-xL protein (FIG. 8A) [1] | effect on Bim upregulation by OS (FIG. 7) [2] | effect on Bid protein upregulated by OS (FIG. 6) [3] | effect on SIRT1 abundance (FIG. 10) [4] | conversion to mono- and di-hydroxylated derivatives in cell culture (FIG. 2) [5]
1 | CC/C=C\C[C@H](O)\C=C/C=C/C=C/[C@H](O)C/C=C\C/C=C\CCCCCCCCCCCCCCC(=O)O [ELV2, (16Z,19Z,22R,23E,25E,27Z,29S,31Z)-22,29-dihydroxytetratriaconta-16,19,23,25,27,31-hexaenoic acid] | potent upregulation | potent downregulation | potent downregulation |  | 
2 | CC/C=C\C/C=C\C/C=C\C/C=C\C/C=C\C/C=C\CCCCCCCCCCCCCCC(=O)O [C34:6] |  |  |  | mediate the upregulation of SIRT1 | yielded a hydroxylated product; also recorded: could be detected
